Test system: human embryo fibroblasts (HEFs)
Experiment: Normalized luciferase expression from IDLV (pTK993) in human embryo fibroblasts treated with Velcade and/or sodium butyrate
Type: cell-based
Settings: sample i: HEFs, Velcade 25 nM for 24 hours at transduction, sodium butyrate 5 mM for 48 hours from day 19; harvested 21 days post transduction; normalized to protein content and VCN
From the text: FIG. 7: A short-term treatment of host cells with proteasome inhibitor (velcade) at the time of IDLV transduction results in long-term sensitivity of IDLV expression to HDAC inhibitor (sodium butyrate) treatment. A) Depiction of a conventional self-inactivating HIV-1 vector (pTK993) from which the firefly luciferase is expressed under the control of a CMV promoter. […] B) To characterize the short- and long-term effects of HDAC and proteasome inhibitors on IDLV gene expression, human embryo fibroblasts (HEFs) were transduced with IDLV carrying the firefly luciferase cDNA under the control of a CMV promoter. HEF transduction was carried out either in the absence (samples a, d, g and h) or in the presence of Velcade (25 nM) for 24 hours (samples b, e and i) or sodium butyrate (5 mM) for 48 hours (samples c and f). At day 19 post transduction, sample g was treated with Velcade (25 nM) for 24 hours, while samples h and i were treated with sodium butyrate (5 mM) for 48 hours. Cell samples were harvested at either 48 hours (samples a-c) or 21 days post-transduction and analyzed for luciferase expression, which was normalized to protein content and vector copy number per diploid cell genome (VCN). The readout of normalized luciferase expression is shown above each sample. […]

CC(C)C[C@H](NC(=O)[C@H](Cc1ccccc1)NC(=O)c1cnccn1)B(O)O [Velcade]
fold of increase in IDLV expression (normalized luciferase) relative to sample-control: 75 fold
